The results in this text go back to patent US11596656B2, “Stem cell-produced microvesicles for treating tendon pathologies” (ALBERT EINSTEIN COLLEGE OF MEDICINE, priority 2016, dated 2023).

The structures appear in SMILES notation. Where a name gives a salt, the structure may show the parent alone.

In data set [1] the test system is MSCs grown on silk scaffolds. Kind of data set: Rho/Rock pathway and stress fiber disruption in MSCs grown on silk scaffolds. The format is cell-based. Conditions: treatment for 24 h. From the text:
FIG. 6A-6C. Disruption of Rho/Rock Pathway signaling and stress fiber formation are required for tendon lineage determination. (6A) Immunocytochemistry of P-actin in MSCs grown either with no treatment or treated with Latrunculin A, Y-27632 and Blebbistatin for 7 days (blue=DAPI, green=P-actin). *P<0.05 for all treatments. (6B) mRNA expression and protein expression of Sex and mRNA expression of (6C) Coll al and Nfatc4 Nst in MSCs grown on silk scaffolds following treatment with Latrunculin A (LatA), Y-27632 (Y) and Blebbistatin (Bleb) for 24 h. Data represent three independent experiments per assay.
4. Disruption of stress fiber formation by blocking Rho/Rock Pathway signaling abolished silk scaffold induced MSCs tendon lineage differentiation. To determine the role of stress fibers in mediating silk fiber-induced MSC tenogenic differentiation, the impact of cell signaling on the regulation of stress fiber formation was examined.
Compared to untreated cells, cells that were exposed to the above treatment conditions lost their elongated phenotype (FIG. 6A). […] Therefore, the expression of Nfatc4 and Collal following treatment with Latrunculin A, Y-27632, and blebbistatin was also examined.

Data set [2] deals with MSCs grown on silk scaffolds. Kind of data set: effect of cytochalasin D on silk-fiber induced MSC teno-differentiation. The format is cell-based. The source says: FIG. 5A-5I. Cytochalasin D disrupted actin cytoskeletal arrangement in cells attached to scaffold fibers and abolished the elongated cell body [(5A) vs (5B)] and associated nuclear shape change [(5C) vs (5D)]. […] (5G) Relative mRNA and (5H) western blot of Sex and Tnmd expression with (i) relative mRNA expression of the housekeeping genes Hrptl and Pgkl as an internal control. Data represent at least three independent experiments per assay. *P<0.05 compared to MSCs seeded on a scaffold without cytochalasin D. Scale bar=25 μm.
3. Actin polymerization is required for scaffold induced stem cell elongation and expression of tenogenesis markers Sex and Tnmd. To determine the role of cytoskeletal organization in the differentiation of MSCs into tenocytes when MSCs are grown on silk, the effect of cytochalasin D, which inhibits actin polymerization by capping the barbed ends of F-actin polymers was examined on silk-fiber induced MSC teno-differentiation. Differences in cell shape and cell nuclei were quantified by measuring the lengths of the cells that were growing in parallel with the fibers and were compared to the maximal widths of the cells, which were measured perpendicular to the fibers. […] Significant differences were found when quantifying the cytoplasmic (P<0.05) and nuclear (P<0.05) ratios (Fig. SE).
To determine whether actin polymerization in elongated cells is required for tenogenic differentiation, the effect of cytochalasin D was examined on tenogenic marker gene and protein expression in MSCs that were grown on silk scaffolds for 7 days. […] To determine whether the loss of Sex and Tnmd expression was due to specific effects produced by cytochalasin D on actin polymerization and cell morphology, rather than due to general toxicity related to gene expression, the expression levels of two housekeeping genes, Hypoxanthine-guanine phosphoribosyltransferase
1 (Hprtl) and phosphoglycerate kinase 1 (Pgkl), were analyzed.

Where [3] appears, read: MSCs grown on silk scaffolds for 7 days, compared to untreated controls.
Setting [4] is: check for general toxicity related to gene expression.
Where [5] appears, read: compared to untreated MSCs, P<0.05.

Take `C/C1=C/C(=O)O[C@@H]2C[C@@H](CC[C@H](C)/C=C\C=C\CC1)O[C@@](O)([C@@H]1CSC(=O)N1)C2` [Latrunculin A]: in data set [1], the “expression level of Coll al” value is given as “significantly decreased”, the “expression level of Nfatc4” value is “significantly decreased”, the “expression level of SCX proteins” value is “significantly decreased” and the “expression level of Sex mRNAs” value is “significantly decreased”.
Take `Cc1ccc2c(c1)C(=O)C1(O)CCN(c3ccccc3)C1=N2` (stereo not shown) [blebbistatin]: in data set [1], the “expression level of Coll al” value was “significantly decreased”, the “expression level of Nfatc4” value is “significantly decreased”, the “expression level of SCX proteins” value is recorded as “significantly decreased” and the “expression level of Sex mRNAs” value is reported as “significantly decreased”.
On to `C=C1[C@@H](C)[C@H]2[C@H](Cc3ccccc3)NC(=O)[C@]23[C@H](OC(C)=O)/C=C/[C@@](C)(O)C(=O)[C@@H](C)C/C=C/[C@H]3[C@@H]1O` [cytochalasin D], for which, in data set [2] (setting [3]), the “Sex expression (immunocytochemistry, real-time PCR, western blot)” value is on record as “loss”; the “Tnmd expression (immunocytochemistry, real-time PCR, western blot)” value is “loss”; the “elongated phenotype of the cells” value is listed as “abolished”. In data set [2] (setting [4]), the “expression level of housekeeping gene Hprtl” value is listed as “remained unchanged” and the “expression level of housekeeping gene Pgkl” value was “remained unchanged”. Also, in data set [2] (setting [5]), the “length-to-width ratio of cytoplasm” value was “smaller” and the “length-to-width ratio of nuclei” value was “smaller”.
As to `C[C@@H](N)[C@H]1CC[C@H](C(=O)Nc2ccncc2)CC1` [Y-27632, Y-27632 dihydrochloride], in data set [1], the “expression level of Coll al” value is on record as “significantly decreased”, the “expression level of Nfatc4” value is listed as “significantly decreased”, the “expression level of SCX proteins” value is “significantly decreased” and the “expression level of Sex mRNAs” value was “significantly decreased”.
